Results taken from patent US11365194B2, “Analgesic drug using PAC1 receptor antagonistic drug” (KAGOSHIMA UNIVERSITY, priority 2017, dated 2022).

Tests used:
[1] = target: T1, mouse PAC receptor-expressing CHO cell (PAC1/CHO cell) (Mus musculus, UniProt P70205); assay: CREB phosphorylation by PACAP stimulus, Western blot, PAC1/CHO cell; format: cell-based; settings: for suppression of CREB phosphorylation by PACAP (1 nM): PAC1/CHO cell, compound 10 μM to 10 nM, 30 minutes before 1 nM PACAP; for effect of suppressing CREB phosphorylation compared with basic compound: at 1 nM, 2o versus PA-8, 3d versus PA-9, FIG. 3
T1 construct: expressed in transfected cells; host or cells: CHO cells
T1 sequence (P70205 21-496): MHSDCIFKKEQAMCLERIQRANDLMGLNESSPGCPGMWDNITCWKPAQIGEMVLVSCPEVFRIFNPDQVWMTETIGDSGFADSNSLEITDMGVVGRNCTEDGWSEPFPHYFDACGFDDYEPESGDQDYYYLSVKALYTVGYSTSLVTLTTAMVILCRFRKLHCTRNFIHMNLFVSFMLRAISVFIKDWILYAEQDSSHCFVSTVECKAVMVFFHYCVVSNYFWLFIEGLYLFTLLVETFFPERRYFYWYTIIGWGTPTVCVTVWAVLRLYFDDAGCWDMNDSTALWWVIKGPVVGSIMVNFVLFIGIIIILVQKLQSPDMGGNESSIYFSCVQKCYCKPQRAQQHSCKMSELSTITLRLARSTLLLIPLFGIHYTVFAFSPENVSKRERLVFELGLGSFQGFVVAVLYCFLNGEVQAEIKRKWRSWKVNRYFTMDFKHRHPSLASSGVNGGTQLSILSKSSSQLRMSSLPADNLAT
Protocol: The effect of each compound on the phosphorylation of CREB (cAMP-responsive element-binding protein) produced by a PACAP stimulus was examined by Western blot analysis using an anti-phosphorylated CREB (pCREB) antibody with a mouse PAC receptor-expressing CHO cell (PAC1/CHO cell) and a mouse VPAC1 receptor-expressing CHO cell (VPAC1/CHO cell).
Specifically, treatment with a compound (PA-8, PA-9, compounds 2j, 20 and 3d) at 10 μM to 10 nM or a solvent therefor (VEH: 0.1% DMSO-containing phosphate buffer solution) was performed for 30 minutes, 1 nM PACAP was then added, and protein was recovered within 30 minutes after a PACAP stimulus.

[2] = system: spontaneous pain-like behavior induced by PACAP intrathecal administration; assay: Spontaneous pain-like behavior induced by PACAP intrathecal administration; format: in vivo, mouse; settings: for suppression of PACAP-induced spontaneous pain-like behavior: simultaneous i.t. with PACAP (100 pmol), counted for 30 minutes
Protocol: When PACAP (100 pmol/5 L) is intrathecally administered to a mouse in a single dose (single i.t. injection), spontaneous pain-like behavior in which the mouse licks or bites the rear half of the body occurs about 5 minutes after the administration (and continues for several hours) (Ohnou et al. J. Pharmacol. Sci. 130, 194-203, 2016). […] Male ddY mice (6 to 12 weeks old) were used, and the behaviors were taken on video. The number of times of spontaneous pain-like behaviors for 30 minutes after the administration was counted.

[3] = system: mechanical allodynia induced by PACAP intrathecal administration; assay: Mechanical allodynia induced by PACAP intrathecal administration (von Frey test); format: in vivo, mouse; settings: simultaneous i.t.
Protocol: When single i.t. administration of PACAP (100 pmol/5 L) to mouse was performed, mechanical stimulus sensitive phenomenon (mechanical allodynia) occurred over a long period of time (for at least three months after the administration) (Non Patent Literature 1). […] The mechanical sensitive phenomenon induced by PACAP was not suppressed in an example in which a solvent (VEH: 0.2% DMSO-containing artificial cerebrospinal fluid) was used instead of the compounds.
(§1) Male ddY mice (6 to 12 weeks old) were used, and the threshold to a mechanical stimulus was evaluated by the vonFrey test. Specifically, the 50% withdrawal reflex threshold (Threshold) was calculated in accordance with the method of Chaplan et al. (Chaplan et al., J. Neurosci. Meth. 53, 55-63, 1994). Each compound was dissolved in 99.7% DMSO, and then the resulting solution was diluted with an artificial cerebrospinal fluid for preparation (final concentration of DMSO was 0.2%).

[4] = system: cold allodynia induced by oxaliplatin; assay: Cold allodynia induced by oxaliplatin, drug on fourth day after oxaliplatin (acetone test); format: in vivo, mouse; settings: 10 mg/kg, single oral administration; for suppression of cold allodynia by oxaliplatin: fourth day after oxaliplatin
Protocol: Oxaliplatin was dissolved in 5% glucose-containing saline and intraperitoneally administered at a dose of 2 mg/kg. A drug was administered on the fourth day after oxaliplatin administration. Male ddY mice (6 to 12 weeks old) were used. The axis of ordinates is the duration of the behavior of licking and paw waving after the application of an acetone drop (10 L) to the footpad of a hind paw.

[5] = system: cold allodynia induced by oxaliplatin; assay: Onset of cold allodynia induced by oxaliplatin, drug given around oxaliplatin administration; format: in vivo, mouse; settings: 10 mg/kg oral
Protocol: Oxaliplatin was dissolved in 5% glucose-containing saline and intraperitoneally administered at a dose of 2 mg/kg. Drug administration (oral administration) was performed 30 minutes before oxaliplatin administration (FIG. 7A); or 3 times: 30 minutes before oxaliplatin administration, 2.5 hours after the administration, and 5.5 hours after the administration (FIG. 7B). Male ddY mice (6 to 12 weeks old) were used. The axis of ordinates is the duration of the behavior of licking and paw waving after the application of an acetone drop (10 μL) to the footpad of a hind paw.

[6] = system: mechanical allodynia induced by spinal nerve injury; assay: Spinal nerve ligation (SNL) model, repeated intraperitoneal administration, mechanical allodynia; format: in vivo, mouse; settings: for suppression of the onset of mechanical allodynia: 30 mg/kg i.p. before ligation and once a day for 7 days
Protocol: as §1
Spinal nerve ligation (SNL) models in which the fourth lumbar cord spinal nerves of male ddY (6 to 12 weeks old) were ligated with silk thread were used. A solvent (VEH: 10% DMSO-containing saline). PA-8, the compound 2j or the compound 20 was intraperitoneally administered (30 mg/kg) 5 to 10 minutes before the ligation, and once a day for 7 days thereafter. The method of causing a mechanical stimulus is the same as that of Example 5, and data from the first day after the ligation (D1) are data 1 hour after the administration of VEH or the drugs.

[7] = system: mechanical allodynia induced by spinal nerve injury; assay: Spinal nerve ligation (SNL) model, i.t. administration on 14th day, mechanical allodynia; format: in vivo, mouse; settings: for anti-mechanical allodynia effect: 100 pmol i.t. on 14th day after operation
Protocol: as §1
Spinal nerve ligation (SNL) models in which the fourth lumbar cord spinal nerves of male ddY (6 to 12 weeks old) were ligated with silk thread were used. The i.t. administration of a solvent (VEH: 10% DMSO-containing saline), PA-8, the compound 2j or the compound 2o (FIG. 9A), or PA-9 or the compound 3d (FIG. 9B) was performed on the 14th day after the operation. The method of causing a mechanical stimulus is the same as that of Example 5, and data were acquired for 24 hours after i.t. administration over time.

[8] = system: pain-like behavior induced by formalin; assay: Pain-like behavior induced by formalin; format: in vivo, mouse; settings: 0.1 to 10 nmol i.t.
Protocol: The first phase is direct action of formalin on sensory nerves (to around 10 minutes after formalin administration). In the second phase (from around 10 minutes to 60 minutes after formalin administration), hypersensitization formed in spinal dorsal horn cells during the first phase (a type of plastic phenomenon in the nervous system also called central sensitization) is a main cause, and inflammatory reaction at the site of formalin administration contributes importantly.

PAC1 receptor = target: T2, PAC1 receptor (Homo sapiens, UniProt P41586); settings: Non Patent Literature 3; cited from earlier work
T2 sequence (P41586 21-468): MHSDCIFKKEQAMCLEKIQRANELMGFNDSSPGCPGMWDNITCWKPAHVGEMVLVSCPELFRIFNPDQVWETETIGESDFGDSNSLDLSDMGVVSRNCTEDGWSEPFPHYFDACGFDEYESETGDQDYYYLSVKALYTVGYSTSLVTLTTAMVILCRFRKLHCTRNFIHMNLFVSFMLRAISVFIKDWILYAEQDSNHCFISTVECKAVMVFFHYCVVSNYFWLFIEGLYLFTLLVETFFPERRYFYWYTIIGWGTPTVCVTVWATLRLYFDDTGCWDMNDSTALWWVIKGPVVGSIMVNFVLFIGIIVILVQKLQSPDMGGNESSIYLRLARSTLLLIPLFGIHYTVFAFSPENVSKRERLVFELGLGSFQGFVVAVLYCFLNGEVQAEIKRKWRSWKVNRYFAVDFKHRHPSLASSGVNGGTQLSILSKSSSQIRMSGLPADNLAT

[9] = Non Patent Literature 4; cited from earlier work
[10] = 30 minutes before oxaliplatin or 3 administrations

Structure (SMILES) | suppression of CREB phosphorylation by PACAP (1 nM) [1] | effect of suppressing CREB phosphorylation compared with basic compound [1] | suppression of PACAP-induced spontaneous pain-like behavior ([2]; 10 pmol) | suppression of PACAP-induced spontaneous pain-like behavior ([2]; 100 pmol) | suppression of long-term mechanical allodynia induced by PACAP ([3]; 10 or 100 pmol, FIGS. 5A and B) | suppression of cold allodynia by oxaliplatin [4] | suppression of the onset of cold allodynia by oxaliplatin [5, 10] | suppression of the onset of mechanical allodynia [6] | anti-mechanical allodynia effect [7] | effect on first phase reaction [8] | effect on second phase reaction [8] | suppression of long-term mechanical allodynia induced by PACAP ([3]; 100 pmol, FIG. 5C) | mechanical threshold 24 hours after the administration ([7]; 100 pmol i.t.) | other results
Nc1nc2c(c(=O)[nH]1)C(c1cccc(OC(F)(F)F)c1)CC(=O)N2 (centres unmarked) [compound 2o, 2-Amino-5-(3-trifluoromethoxyphenyl)-5,8-dihydro-3H,6H-pyrido[2,3-d]pyrimidine-4,7-dione] | suppressed CREB phosphorylation by PACAP (1 nM) | significantly stronger effect of suppressing CREB phosphorylation | did not exhibit a significant suppressing effect | suppressing effect equivalent to PA-8 and the compound 2j | strongly suppressed | suppressed cold allodynia by oxaliplatin significantly over 4 to 5 hours | suppressed the onset of cold allodynia by oxaliplatin significantly | suppressed the onset of mechanical allodynia still more strongly | suppressed the onset of mechanical allodynia significantly | did not affect the first phase reaction | suppressed the second phase reaction significantly depending on the concentration |  |  | time of onset of effect on cold allodynia [4]: effective from an earlier period of time (the first hour after administration); suppression of the onset of cold allodynia by oxaliplatin ([5]; three administrations (FIG. 7B)): suppressed the onset almost completely; mechanical threshold level during administration ([6]; 30 mg/kg i.p. once a day): maintained the mechanical threshold at a level equivalent to an uninjured side; mechanical threshold after discontinuation of administration ([6]; 30 mg/kg i.p., discontinued on the seventh day, versus VEH group): maintained the mechanical threshold highly significantly for at least 7 days thereafter
O=C(NCCc1c[nH]cn1)C1CC(=O)N(c2n[nH]c3ccccc23)C1 (centres unmarked) [PA-9, reference compound] | suppressed CREB phosphorylation by PACAP (1 nM) depending on the concentration |  |  |  |  |  |  |  | anti-mechanical allodynia effect equivalent to PA-8 and the compound 2j |  |  | strongly suppressed | maintained the mechanical threshold highly significantly | PAC1 receptor antagonistic action (PAC1 receptor): have PAC1 receptor antagonistic action; analgesic effect [9]: have analgesic effect
CCOc1cccc(C2CC(=O)Nc3nc(N)[nH]c(=O)c32)c1 (centres unmarked) [compound 2j, 2-Amino-5-(3-ethoxyphenyl)-5,8-dihydro-3H,6H-pyrido[2,3-d]pyrimidine-4,7-dione] | suppressed depending on the concentration |  | suppressed the PACAP response significantly | suppressed the PACAP response significantly | strongly suppressed | suppressed cold allodynia by oxaliplatin significantly over 4 to 5 hours | suppressed the onset of cold allodynia by oxaliplatin significantly | did not suppress the onset of mechanical allodynia | suppressed the onset of mechanical allodynia significantly | did not affect the first phase reaction | did not affect the second phase reaction |  |  | effect on PACAP response compared with PA-8 ([2]; 10 pmol i.t., versus PA-8 10 pmol): significantly stronger than that of PA-8 (10 pmol); maximum effect compared with compound 2o ([7]; 100 pmol i.t., 3 hours after the administration): significantly inferior as compared with the compound 2o
O=C(NCCc1c[nH]cn1)C1CC(=O)N(c2n[nH]c3c(Cl)cccc23)C1 (centres unmarked) [compound 3d, N-[2-(1H-imidazol-4-yl)ethyl]-1-(7-chloro-1H-indazol-3-yl)-5-oxo-3-pyrrolidinecarboxamide] | suppressed CREB phosphorylation by PACAP (1 nM) depending on the concentration | significantly stronger effect of suppressing CREB phosphorylation |  |  |  |  |  |  | anti-mechanical allodynia effect equivalent to PA-8 and the compound 2j |  |  | strongly suppressed | maintained the mechanical threshold highly significantly | 
